Three compounds from the NIST ThermoML archive (doi:10.1016/j.tca.2015.04.021) can be followed below.

The data set can be described thus: molar enthalpy of vaporization or sublimation. The conditions noted are these: Liquid, TGA.

SMILES strings stand for the structures. ± gives the expanded uncertainty stated by the source.

Take `Cn1cc[n+](CCC(F)(F)C(F)(F)F)c1.O=S(=O)([N-]S(=O)(=O)C(F)(F)F)C(F)(F)F`: the molar enthalpy (527.7 K) amounted to 27.2 ± 0.621 kcal/mol.

On to `Cn1cc[n+](CCC(F)(F)C(F)(F)C(F)(F)C(F)(F)C(F)(F)C(F)(F)F)c1.O=S(=O)([N-]S(=O)(=O)C(F)(F)F)C(F)(F)F`, for which the molar enthalpy (532.3 K) was 30.1 ± 0.669 kcal/mol.

Take `Cn1cc[n+](CCC(F)(F)C(F)(F)C(F)(F)C(F)(F)C(F)(F)C(F)(F)C(F)(F)C(F)(F)F)c1.O=S(=O)([N-]S(=O)(=O)C(F)(F)F)C(F)(F)F`: the molar enthalpy (531.8 K) was determined as 30.5 ± 0.669 kcal/mol.
